# Assay results published in PMC11567856, “A novel peptide‐based tau aggregation inhibitor as a potential therapeutic for Alzheimer's disease and other tauopathies” (Alzheimer's & Dementia, 2024).
# Where a SMILES comes first, the peptide text is derived from it. [ ]: non-standard residue; d: D form.
# What was measured:
# [1] = target: T1, Tau^Δ1‐250 (Homo sapiens, UniProt P10636); assay: Seeded Tau^Δ1‐250 aggregation with preformed filaments, no heparin; format: biochemical; conditions: Tau monomers incubated with preformed Tau^Δ1‐250 filaments, no heparin (Figure S10)
# T1 construct: Tau^Δ1‐250 (an aggregate prone truncated version of full‐length Tau); made in house; host or cells: E. coli BL21(DE3)
# T1 sequence (P10636 568-758, stated change not applied): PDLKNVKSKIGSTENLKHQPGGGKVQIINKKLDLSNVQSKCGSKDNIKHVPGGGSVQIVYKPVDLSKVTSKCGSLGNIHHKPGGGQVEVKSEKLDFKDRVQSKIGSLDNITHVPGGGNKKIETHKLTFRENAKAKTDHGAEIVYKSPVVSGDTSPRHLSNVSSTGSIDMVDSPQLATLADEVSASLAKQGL
# [2] = ThT fluorescence, self-assembly of peptide inhibitors without Tau; format: physicochemical; conditions: ThT end-point 216 h (9 days); 20 µM peptide, PBS, 1 mM DTT, 20 µM ThT, 10 µM heparin, pH 7.4; n=3
# Method: Fluorescence was measured (λex = 442 nm, λem = 483 nm), and data were normalized. […] The addition of inhibitor to the growth phase was controlled by adding an equivalent volume of buffer alone.
# Experiments were conducted in triplicate and error bars were reported as standard deviation. Statistical analysis: p > 0.05, *p ≤ 0.05, **p ≤ 0.01, ***p ≤ 0.001.
# [3] = test system: Tau repeat domain (RD) with the P301S mutation fused to mCer and mClo, HEK293 biosensor cells; assay: Tau fibril seeding in FRET Tau biosensor cells; format: cell-based, human
# Method: Tau biosensor cells culture: RD P301S Tau biosensor cells have been previously described,[45] and in this case v2L cells were used. Cells were cultured in 10 cm dishes containing Dulbecco's Modified Eagle's Medium (DMEM) (Gibco) enriched with 10% FBS (HyClone), 1% penicillin/streptomycin (Gibco), and 1% GlutaMAX (Gibco) at 37°C with 5% CO2 in a humidified incubator.
# 5 µM of tau fibrils (monomer equivalent) were incubated in PBS with peptide RI‐AG03 or scramble (0–500 µM) at 300 rpm agitation at 4°C for 16 h. The reaction was stopped by flash freezing in liquid nitrogen and stored at –20°C. Tau biosensor cells were plated at a density of 30,000 cells in 120 µL of media per well in a 96‐well plate. After 18 h, using Lipofectamine 2000 cells were transduced with 10 nM of treated fibrils that had been briefly sonicated for 30 s at 65 Amp (QSonica). Lipofectamine complexes were formed in 30 µL consisting of 14.17 µL Opti‐MEM (Gibco), 15 µL of treated fibrils diluted in PBS, and 0.83 µL lipofectamine 2000 (Invitrogen), bringing the total volume to 150 µL. […] Aggregates in Tau biosensors (10,000 minimum) were quantified by FRET flow cytometry in a LSRFortessa SORP (BD Biosciences). To detect the cerulean signal, cells were excited with a 405 nm laser, and fluorescence was captured at […]. For clover signal, cells were excited with a 488 nm laser and fluorescence was detected at 525/50 nm. Flow cytometry data were analyzed using a gating strategy previously described.[45], [47] The percentage of cells with positive FRET signal were quantified. Each condition was analyzed in quadruplicate. […]
# To test RI‐AG03 efficacy in mammalian cells, we utilized a fluorescence resonance energy transfer (FRET) biosensor HEK293 cell line that stably expresses the Tau repeat domain (RD) with the P301S mutation fused to mCer and mClo. These cells[45] or prior generations[71] have been used extensively to quantify Tau seeding activity and measure intracellular aggregation.[71] […] Seeded aggregation was quantified by the percentage of FRET positivity.
# [4] = test system: Elav/hTau^2N4R flies; assay: Drosophila survival assay, hTau^2N4R pan-neuronal; format: in vivo, Drosophila melanogaster; set-up: unit of the concentration uncertain
# Method: Drosophila survival assays: Elav‐GAL4 (BDSC_458) female flies were crossed with male UAS‐Tau^2N4R flies or with gender‐matched Oregon‐R (WT) flies. Survival of 10 cohorts of 10 male flies expressing hTau^2N4R pan‐neurally and reared on a diet containing 0.08 or 0.8 µM RI‐AG03 was assessed as previously described.[49] Statistics and reproducibility: Data were collected in ≥triplicate and expressed as mean ± standard error of the mean. […] This test analyzed outcomes related to the treatment effects of peptide inhibitors against Tau aggregation at multiple time points, controlling for individual variability and ensuring that changes observed were significant. For the Drosophila survival data, a Kaplan–Meier survival curve was plotted, and a Log‐rank (Mantel–Cox) test was performed on the data using GraphPad Prism software[49] This test analyzed survival outcomes by comparing survival distribution between groups, without assuming a specific distribution for survival times. AFM data were analyzed by unpaired t‐test with Welch's correction as we made the assumption, from previous similar studies, that the two populations (Tau enriched preps isolated from flies fed or not fed RI‐AG03) had the […].
# [5] = test system: HEK‐293 cells
compound,measurement,setting,value
CC[C@@H](C)[C@@H](NC(=O)[C@@H](CCCCNC(C)=O)NC(=O)[C@@H](Cc1ccc(O)cc1)NC(=O)[C@@H](CCCCN)NC(=O)[C@H]1CCCN1C(=O)CNC(=O)[C@@H](CCCNC(=N)N)NC(=O)[C@@H](CCCNC(=N)N)NC(=O)[C@@H](CCCNC(=N)N)NC(=O)[C@@H](CCCNC(=N)N)NC(=O)[C@@H](CCCNC(=N)N)NC(=O)[C@@H](CCCNC(=N)N)NC(=O)[C@@H](CCCNC(=N)N)NC(=O)[C@@H](CCCNC(=N)N)NC(C)=O)C(=O)N[C@H](CCC(N)=O)C(=O)N[C@@H](C(=O)NCC(=O)N[C@H](CCCNC(=N)N)C(N)=O)C(C)C [RI‐AG03] (Ac-[dR][dR][dR][dR][dR][dR][dR][dR]G[dP][dK][dY][dK](Ac)[dI][dQ][dV]G[dR]-NH2),effect on seeded Tau^Δ1‐250 aggregation in the absence of heparin,[1],demonstrated efficacy at inhibiting seeded Tau^Δ1‐250 aggregation
same,self-association into β‐sheets over 216 h,[2],does not self‐associate into β‐sheets
same,concentrations with peptide‐induced toxicity (decrease in FRET positivity),"[3]; biosensor cells, fibrils preincubated with 0–500 µM peptide, Figure 5C",above 100 µM
same,aggregates (green puncta) in biosensor cells by fluorescence microscopy,"[3]; preformed fibrils incubated with 30 µM peptide, compared with scramble peptide",fewer aggregates
same,"median survival of hTau^2N4R flies, high dose","[4]; high‐dose (0.8 µM) in diet, pan‐neuronal hTau^2N4R male flies, untreated 26 days, n = 100, p < 0.0005",35 days
same,"improvement of median survival of hTau^2N4R flies, high dose","[4]; high‐dose (0.8 µM) in diet, versus untreated 26 days, n = 100",35%
same,"median survival of hTau^2N4R flies, low dose","[4]; low‐dose (0.08 µM) in diet, pan‐neuronal hTau^2N4R male flies, untreated 26 days, n = 100, p < 0.0005",33 days
same,"improvement of median survival of hTau^2N4R flies, low dose","[4]; low‐dose (0.08 µM) in diet, versus untreated 26 days, n = 100",27%
same,concentration at which toxicity begins to increase (LDH cytotoxicity),[5],40 µM
same,doses found non‐toxic (LDH cytotoxicity),[5],up to 30 µM
